ChEMBL document CHEMBL3227957, “(+)-Isobutaclamol: a crystallographic, pharmacological, and biochemical study” (J Med Chem, 1979)

What was measured:
Rattus norvegicus [1] = assay: Inhibition of (+)-amphetamine-induced stereotyped behavior in ip dosed rat administered 15 mins prior to (+)-amphetamine challenge measured after 15 mins; type: functional; conditions: read-out: MED
Rattus norvegicus [2] = species on record: Rattus norvegicus; assay: Displacement of [3H]haloperidol from rat striatum dopamine receptor at 1000 nM
Bos taurus = species on record: Bos taurus; assay: Displacement of [3H]spiperone from calf striatum dopamine receptor at 1000 nM
[3] = Displacement of [3H]spiperone from calf striatum dopamine receptor; set-up: species or system Bos taurus
[4] = Displacement of [3H]haloperidol from rat striatum dopamine receptor

| Structure (SMILES) | minimal effective dose (Rattus norvegicus [1]) [mg/kg] | inhibition (Rattus norvegicus [2]) [%] | inhibition (Bos taurus) [%] | IC50 [3] [nM] | IC50 [4] [nM] |
| --- | --- | --- | --- | --- | --- |
| Br.CC(C)(C)[C@@]1(O)CCN2C[C@@H]3Cc4ccccc4Cc4cccc(c43)[C@H]2C1 | > 25 | 0 | 0 | – | – |
| Br.CC(C)(C)[C@]1(O)CCN2C[C@H]3Cc4ccccc4Cc4cccc(c43)[C@@H]2C1 | 0.31 | – | – | 0.8 | 0.8 |
| CC(C)(C)[C@]1(O)CCN2C[C@H]3Cc4ccccc4Cc4cccc(c43)[C@@H]2C1.Cl (racemic) | 0.62 | – | – | 1.7 | 1.7 |
